Entries after “also recorded” stand apart in the source; their conditions may differ.
Legend:
[1] = system: Calf Thymus DNA (CT-DNA); assay: Increase in fluorescence upon binding with Calf Thymus DNA; conditions: figure legends FIG. 12-22
Description: 1 mg/ml stock solutions of all the compounds were prepared in DMSO. Few insoluble compounds were then dissolved in non-polar solvent. 10 ul (1 mg/ml) of each of the compounds were used to do an absorbance scan in the TECAN nano reader and the graphs were plotted. The absorbance peaks for each of the compounds were tabulated and further used as excitation wavelength for fluorescence scans. Initially an absorbance scan was performed to identify the excitation maxima after which the excitation wavelength was used to obtain the emission maxima/fluorescence plots. Once the excitation and emission maxima were known, different concentrations of the compounds were used starting from 10 ng to saturating concentrations to obtain fluorescent spectra. Similarly, a fixed concentration of the compound was used to which an increasing concentration of DNA/RNA was added until saturation to find the nucleic acid binding properties of the dyes and compounds. In addition, a fixed concentration of DNA/RNA was used, to which increasing concentrations of the compounds were added until saturation. The data obtained was plotted and used for calculating binding constants and determining the binding ability of the dyes and compounds. 1 mg/ml stock solutions of all compounds the were prepared in DMSO. Few insoluble compounds were then dissolved in nonpolar solvent. 10 ul (1 mg/ml) of each of the compounds were used to do an absorbance scan in the TECAN nano reader and the graphs were plotted. The absorbance peaks for each of the compounds were tabulated and further used as excitation wavelength for fluorescence scans. Initially an absorbance scan was performed to identify the excitation maxima after which the excitation wavelength was used to obtain the fluorescence plots. Once the excitation and emission maxima were known, different concentrations of the compounds were used starting from 10 ng to saturating concentrations to obtain fluorescent spectra. Similarly, a fixed concentration of the said compound was used to which an increasing concentration of DNA/RNA was added until saturation to find the nucleic acid binding properties of the dyes and compounds. In addition, a fixed concentration of DNA/RNA was used, to which increasing concentrations of the compounds were added until saturation. The data obtained was plotted and used for calculating binding constants and determining the binding ability of the dyes and compounds.

[2] = system: DNA; assay: Detection of DNA binding by the compounds (Table 2); conditions: yes = binding detected, empty cells not reported
[3] = system: RNA; assay: Detection of RNA binding by the compounds (Table 2); conditions: yes = binding detected, empty cells not reported
[4] = system: DNA; assay: Emission maxima with DNA; type: binding; conditions: Table 6
Description: The absorbance peaks for each of the compounds were tabulated and further used as excitation wavelength for fluorescence scans. Initially an absorbance scan was performed to identify the excitation maxima after which the excitation wavelength was used to obtain the emission maxima/fluorescence plots. Once the excitation and emission maxima were known, different concentrations of the compounds were used starting from 10 ng to saturating concentrations to obtain fluorescent spectra. Similarly, a fixed concentration of the compound was used to which an increasing concentration of DNA/RNA was added until saturation to find the nucleic acid binding properties of the dyes and compounds. In addition, a fixed concentration of DNA/RNA was used, to which increasing concentrations of the compounds were added until saturation. The data obtained was plotted and used for calculating binding constants and determining the binding ability of the dyes and compounds.
(§1) 1 mg/ml stock solutions of all compounds the were prepared in DMSO. Few insoluble compounds were then dissolved in nonpolar solvent. 10 ul (1 mg/ml) of each of the compounds were used to do an absorbance scan in the TECAN nano reader and the graphs were plotted. The absorbance peaks for each of the compounds were tabulated and further used as excitation wavelength for fluorescence scans. Initially an absorbance scan was performed to identify the excitation maxima after which the excitation wavelength was used to obtain the fluorescence plots. Once the excitation and emission maxima were known, different concentrations of the compounds were used starting from 10 ng to saturating concentrations to obtain fluorescent spectra. Similarly, a fixed concentration of the said compound was used to which an increasing concentration of DNA/RNA was added until saturation to find the nucleic acid binding properties of the dyes and compounds. In addition, a fixed concentration of DNA/RNA was used, to which increasing concentrations of the compounds were added until saturation. The data obtained was plotted and used for calculating binding constants and determining the binding ability of the dyes and compounds.

[5] = Absorbance and fluorescence scans (excitation and emission maxima); type: physicochemical; set-up: unit not given here; conditions: compound alone; Table 6
Description: 1 mg/ml stock solutions of all the compounds were prepared in DMSO. Few insoluble compounds were then dissolved in non-polar solvent. 10 ul (1 mg/ml) of each of the compounds were used to do an absorbance scan in the TECAN nano reader and the graphs were plotted.
The absorbance peaks for each of the compounds were tabulated and further used as excitation wavelength for fluorescence scans. Initially an absorbance scan was performed to identify the excitation maxima after which the excitation wavelength was used to obtain the emission maxima/fluorescence plots. Once the excitation and emission maxima were known, different concentrations of the compounds were used starting from 10 ng to saturating concentrations to obtain fluorescent spectra. Similarly, a fixed concentration of the compound was used to which an increasing concentration of DNA/RNA was added until saturation to find the nucleic acid binding properties of the dyes and compounds. In addition, a fixed concentration of DNA/RNA was used, to which increasing concentrations of the compounds were added until saturation. The data obtained was plotted and used for calculating binding constants and determining the binding ability of the dyes and compounds. […]
as §1

[6] = system: RNA of E. coli BL21; assay: Working concentration of compound (25) for RNA detection, agarose gel electrophoresis; type: binding; conditions: 10-50 ng RNA with 5, 10, 20, 40 ng of compound 25; 1% agarose gel, TBE buffer
Description: To check the working concentration of compound (25) using different concentrations of RNA, RNA of E. coli BL21 was isolated and diluted to 10 ng/μl from the stock. Using a TBE buffer 1% agarose gel was casted and gel electrophoresis is performed using 10-50 ng concentration of RNA with 5, 10, 20, 40 ng of compound 25.

[7] = system: Protein; assay: Detection of protein binding by the compounds (Table 2); conditions: yes = binding detected, empty cells not reported
Source text: Absorbance Spectra and Fluorescence Spectra conditions for compound+DNA/RNA/Protein Methods of experimentation: An Excitation Max: 488 nm, Emission Max: 560 nm, Band width: 488-600 nm on Alexa Fluor 488 channel were used for flow cytometry and microscopic determinations TECAN spectrofluorimeter.

[8] = Comparison with commonly available DNA staining agents: toxicity (Table 3); conditions: Hoescht and DAPI cells wrap: 'Potentially carcinogenic & Mutagenic'
[9] = Comparison with commonly available DNA staining agents: photostability (Table 3); type: physicochemical
[10] = system: double-stranded DNA; conditions: when bound; cited from earlier work

| SMILES | increase in fluorescence upon binding with Calf Thymus DNA (CT-DNA) [1] | DNA (binding detected) [2] | RNA (binding detected) [3] | Emission maxim with DNA [4] | Emission maxima [5] | Excitation Maxima [5] | other results |
| --- | --- | --- | --- | --- | --- | --- | --- |
| COc1cc(/C=C2\COc3cc(O)ccc3C2=O)ccc1O [Compound 007] | 25 fold | yes | Yes | – | – | – | – |
| COc1ccc2c(c1)OC/C(=C\c1ccc(OC)c(OC)c1)C2=O [Compound 009] | 15 fold | – | yes | – | – | – | – |
| O=C1/C(=C/c2ccc(O)c(O)c2)COc2cc(O)ccc21 [Compound 015] | – | yes | yes | 610 nm | 570 | 490 | – |
| Cc1ccc2c(c1)OC/C(=C\c1ccc(C)c(C)c1)C2=O [Compound 016] | 5 fold | yes | – | 610 nm | 610 | 490 | – |
| Oc1ccc2c(c1)OC[C@](O)(Cc1ccc(O)c(O)c1)[C@H]2O [Compound 017] | > 1000 fold | yes | yes | – | – | – | – |
| O=C1C=C2C(=C[C@@]3(O)COc4cc(O)ccc4[C@@H]23)C=C1O [Compound 019] | > 1000 fold | yes | – | 570 nm | 570 | 490 | – |
| COc1ccc2c(c1)SCC1=C2c2cc(OC)c(OC)cc2C1 [Compound 021] | – | – | yes | – | – | – | – |
| CN1C/C(=C\c2ccc(O)c(O)c2)C(=O)c2ccc(O)cc21 [Compound 025] | > 1000 fold | – | yes | – | – | – | RNA bands on gel [6]: bands are in all the wells |
| Cc1ccc(C)cc1 [Compound 026] | – | yes | yes | 590 nm | 580 | 490 | – |
| CCc1cc(O)ccc1C(=O)/C=C/C1=CC(OC)C(O)C=C1 (centres unmarked) [Compound 031] | – | – | yes | 610 nm | 610 | 490 | – |
| Cc1cc2c(cc1O)OC[C@]1(O)Cc3cc(O)c(O)cc3[C@H]21 [Compound 032] | – | – | – | 570 nm | 570 | 490 | – |
| Oc1ccc2c(c1)OC[C@]1(O)Cc3cc(O)c(O)cc3[C@H]21 [Compound 033] | > 1000 fold | yes | yes | – | – | – | – |
| Oc1cc2c(cc1O)[C@@H]1c3cc(-c4ccccc4)c(O)cc3OC[C@]1(O)C2 [Compound 035] | > 1000 fold | – | yes | 580 nm | 580 | 490 | Protein (binding detected) [7]: yes |
| Oc1cc2c(cc1O)[C@@H]1c3cc(-c4ccc(F)cc4)c(O)cc3OC[C@]1(O)C2 [Compound 037] | > 1000 fold | yes | yes | – | – | – | Protein (binding detected) [7]: yes |
| COc1cc2c(cc1OC)[C@@H]1c3cc(-c4ccccc4)c(OC)cc3N(S(=O)(=O)c3ccc(C)cc3)C[C@]1(O)C2 [Compound 038] | 2 fold | – | yes | – | – | – | – |
| Cc1ccc(S(=O)(=O)N2C[C@]3(O)Cc4cc(O)c(O)cc4[C@@H]3c3cc(-c4ccc(F)cc4)c(O)cc32)cc1 [Compound 039] | – | yes | – | – | – | – | – |
| N=C(N)c1ccc(-c2cc3ccc(C(=N)N)cc3[nH]2)cc1 [DAPI] | – | – | – | – | – | – | Toxicity [8]: carcinogenic; also recorded: & Mutagenic; Photostability [9]: 10 min |
| CCCN(CCCN(C)C)c1cc(/C=C2/Sc3ccccc3N2C)c2ccccc2[n+]1-c1ccccc1 [SYBR Green] | – | – | – | – | – | – | absorbs at a wavelength [10]: around 497 nm; emits fluorescence [10]: around 530 nm |
